Results reported in PubChem BioAssay AID1963431 (Molecular Pharmacology Branch, DTP, NCI, 2024).
pIC50: −log10 of the molar value.

Tested on: Rh18 complex spheroid viability, percent test/control
Assay: Anticancer human tumor Rh18 cell line growth inhibition [Asc];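 also: spheroids exposed to compound for 7 days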;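 as to viability, T/C: 100% = DMSO vehicle control wells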
Conditions: for pIC50: curve of first compound; for viability, T/C: stronger effect = lower value
How it was run: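 Stromal components (HUVEC and hMSC) are co-assembled with the cancer cells into multicellular spheroids. Drugs are then added singly or paired, at concentrations falling by half-log increments from a clinically achievable maximum, capped at 10 microM without known Cmax.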

In the case of O=C(c1cc(Cc2n[nH]c(=O)c3ccccc23)ccc1F)N1CCN(C(=O)C2CC2)CC1 + CCN1C(C(=O)NC23CCC(C(=O)O)(CC2)CC3)C(c2cccc(Cl)c2F)C2(C(=O)Nc3cc(Cl)ccc32)C12CCCCC2, the pIC50 (second compound 0.03 µM) was greater than 7.50, the pIC50 (second compound 0.0949 µM) was greater than 7.50 and the pIC50 (second compound 0.3 µM) was greater than 7.50. The pIC50 (second compound 0.949 µM) was greater than 7.50, the pIC50 (second compound 3 µM) was greater than 7.50 and the viability, T/C (second compound 0.03 µM, first compound 0.0316 µM) was 49.4%. The viability, T/C (second compound 0.03 µM, first compound 0.1 µM) was 38.6%, the viability, T/C (second compound 0.03 µM, first compound 0.316 µM) was 43.2% and the viability, T/C (second compound 0.03 µM, first compound 1 µM) was 41.7%. The viability, T/C (second compound 0.03 µM, first compound 3.16 µM) was 40.7%, the viability, T/C (second compound 0.03 µM, first compound 10 µM) was 46.3% and the viability, T/C (second compound 0.0949 µM, first compound 0.0316 µM) was 26.5%. The viability, T/C (second compound 0.0949 µM, first compound 0.1 µM) was 26.8%, the viability, T/C (second compound 0.0949 µM, first compound 0.316 µM) was 28.7% and the viability, T/C (second compound 0.0949 µM, first compound 1 µM) was 29%. It also gave a viability, T/C (second compound 0.0949 µM, first compound 3.16 µM) of 25.1%, a viability, T/C (second compound 0.0949 µM, first compound 10 µM) of 23.7% and a viability, T/C (second compound 0.3 µM, first compound 0.0316 µM) of 14.2%. It also gave a viability, T/C (second compound 0.3 µM, first compound 0.1 µM) of 13.7%, a viability, T/C (second compound 0.3 µM, first compound 0.316 µM) of 14.7% and a viability, T/C (second compound 0.3 µM, first compound 1 µM) of 12.3%. It also gave a viability, T/C (second compound 0.3 µM, first compound 3.16 µM) of 11.6%, a viability, T/C (second compound 0.3 µM, first compound 10 µM) of 12.4% and a viability, T/C (second compound 0.949 µM, first compound 0.0316 µM) of 10.5%. The viability, T/C (second compound 0.949 µM, first compound 0.1 µM) was 11.3%, the viability, T/C (second compound 0.949 µM, first compound 0.316 µM) was 10.7% and the viability, T/C (second compound 0.949 µM, first compound 1 µM) was 10.2%. The viability, T/C (second compound 0.949 µM, first compound 3.16 µM) was 9.53%, the viability, T/C (second compound 0.949 µM, first compound 10 µM) was 9.36% and the viability, T/C (second compound 3 µM, first compound 0.0316 µM) was 10.4%. It also gave a viability, T/C (second compound 3 µM, first compound 0.1 µM) of 8.17%, a viability, T/C (second compound 3 µM, first compound 0.316 µM) of 9.35% and a viability, T/C (second compound 3 µM, first compound 1 µM) of 10.7%. It also gave a viability, T/C (second compound 3 µM, first compound 3.16 µM) of 9% and a viability, T/C (second compound 3 µM, first compound 10 µM) of 8.64%.
With C=CC(=O)N1CCN(c2nc(=O)n(-c3c(C)ccnc3C(C)C)c3nc(-c4c(O)cccc4F)c(F)cc23)C(C)C1 (stereo not given) + Cc1c(S(C)(=O)=O)c(-c2cc(F)cc(N3CCN(c4ccc(NS(=O)(=O)c5ccc(NC(CCN6CCC(C(=O)OCCCP(=O)(O)O)CC6)CSc6ccccc6)c(S(=O)(=O)C(F)(F)F)c5)cc4)CC3)c2)c(-c2ccc(Cl)cc2)n1C(C)C the pIC50 (second compound 0.1 µM) was greater than 7.50, the pIC50 (second compound 0.316 µM) was greater than 7.50 and the pIC50 (second compound 1 µM) was greater than 7.50. The pIC50 (second compound 3.16 µM) was greater than 7.50, the pIC50 (second compound 10 µM) was greater than 7.50 and the viability, T/C (second compound 0.1 µM, first compound 0.0316 µM) was 15.2%. It also gave a viability, T/C (second compound 0.1 µM, first compound 0.1 µM) of 17%, a viability, T/C (second compound 0.1 µM, first compound 0.316 µM) of 15.5% and a viability, T/C (second compound 0.1 µM, first compound 1 µM) of 19%. For the same compound, the viability, T/C (second compound 0.1 µM, first compound 3.16 µM) was 20.8%, the viability, T/C (second compound 0.1 µM, first compound 10 µM) was 29.2% and the viability, T/C (second compound 0.316 µM, first compound 0.0316 µM) was 11.4%. The viability, T/C (second compound 0.316 µM, first compound 0.1 µM) was 11.5%, the viability, T/C (second compound 0.316 µM, first compound 0.316 µM) was 11.4% and the viability, T/C (second compound 0.316 µM, first compound 1 µM) was 12.6%. The viability, T/C (second compound 0.316 µM, first compound 3.16 µM) was 15.1%, the viability, T/C (second compound 0.316 µM, first compound 10 µM) was 17.5% and the viability, T/C (second compound 1 µM, first compound 0.0316 µM) was 8.27%. It also gave a viability, T/C (second compound 1 µM, first compound 0.1 µM) of 8.47%, a viability, T/C (second compound 1 µM, first compound 0.316 µM) of 8.62% and a viability, T/C (second compound 1 µM, first compound 1 µM) of 7.63%. It also gave a viability, T/C (second compound 1 µM, first compound 3.16 µM) of 11.4%, a viability, T/C (second compound 1 µM, first compound 10 µM) of 15% and a viability, T/C (second compound 3.16 µM, first compound 0.0316 µM) of 6.03%. For the same compound, the viability, T/C (second compound 3.16 µM, first compound 0.1 µM) was 8.21%, the viability, T/C (second compound 3.16 µM, first compound 0.316 µM) was 7.26% and the viability, T/C (second compound 3.16 µM, first compound 1 µM) was 8.5%. The viability, T/C (second compound 3.16 µM, first compound 3.16 µM) was 7.74%, the viability, T/C (second compound 3.16 µM, first compound 10 µM) was 13.2% and the viability, T/C (second compound 10 µM, first compound 0.0316 µM) was 3.36%. For the same compound, the viability, T/C (second compound 10 µM, first compound 0.1 µM) was 5.72%, the viability, T/C (second compound 10 µM, first compound 0.316 µM) was 4.34% and the viability, T/C (second compound 10 µM, first compound 1 µM) was 7.21%. It also gave a viability, T/C (second compound 10 µM, first compound 3.16 µM) of 5.57% and a viability, T/C (second compound 10 µM, first compound 10 µM) of 13%.
